# From patent US11673876B2, “Substituted aminobenzyl heteroaryl compounds as EGFR and/or PI3K inhibitors” (Mekanistic Therapeutics LLC, priority 2020, dated 2023)
# Tests used:
# Type in all cases: in vivo
# [1] = test system: PIK3CA mutant human CAL-33 (squamous head and neck cancer); experiment: CAL-33 xenograft study in NCR nude mice; settings: for Median Increase In Survival: time to 1000 mg vs vehicle
# Method: (§1) Xenograft Studies. Female NCR nude mice (CrTac:NCr-Foxn1nu from Taconic), 6-7 weeks old, were implanted subcutaneously with 5×10^6 cells in a 1:1 serum-free media/Matrigel® mixture into the region of the right axilla. Mice were randomized into treatment groups and treatments initiated when tumors reached 100 to 200 mg. Compound 2R was administered daily by oral gavage as a fine suspension in 1:2 propylene (glycol in 1% Tween80/Na3PO4 based upon individual animal body weight (0.2 mL/20 g). Subcutaneous tumor volume and body weights were measured two to three times a week. Tumor volumes were calculated by measuring two perpendicular diameters with calipers and using the formula: tumor volume=(length×width2)/2. Individual mice were dosed daily until their tumor burden reached 500 mg for the CAL-27 and HCC-70 models or 1000 mg for the CAL-33 model, to allow for calculation of increase in progression-free survival. Percent increase in survival was calculated by comparing the median time to reach either 500 mg or 1000 mg in the treated group versus the vehicle control group. A complete response (CR) is defined as a tumor below the limits of palpation (<40 mg).
# (§2) FIGS. 1-3 show the performance of Compound 2R in controlling tumor size. […] Tumor growth curves as well as survival and objective response data are summarized in the accompanying FIGS. 1-3 and the table below.
# [2] = test system: PI3K gamma mutant human CAL-27 (squamous head and neck cancer); experiment: CAL-27 xenograft study in NCR nude mice; settings: CAL-27 model
# Method: as §1, §2
# [3] = test system: human HCC-70 (triple negative breast cancer); experiment: HCC-70 xenograft study in NCR nude mice
# Method: as §1, §2
# [4] = Tolerability in the xenograft studies; settings: highest dose tested 100 mg/kg, daily dosing over >50 days
# Method: as §1, §2
compound,measurement,setting,value
"C[C@@H](Nc1ncnc2ccc(-c3cnc(Cl)c(NS(C)(=O)=O)c3)cc12)c1ccccc1 [Compound 2R, N-(2-chloro-5-(4-((1R-phenylethyl)amino)quinazolin-6-yl)pyridin-3-yl)methanesulfonamide]",Median Increase In Survival,"[1]; CAL-33, 25 mg/kg daily oral gavage",>700%
same,Median Increase In Survival,"[1]; CAL-33, 50 mg/kg daily oral gavage",>700%
same,Median Increase In Survival,"[1]; CAL-33, 100 mg/kg daily oral gavage",>700%
same,single agent activity (tumor growth),[1]; CAL-33 model,Single agent activity of Compound 2R was demonstrated
same,single agent activity (tumor growth),[2],Single agent activity of Compound 2R was demonstrated
same,Median Increase In Survival,"[3]; HCC-70, 100 mg/kg daily oral gavage, time to 500 mg vs vehicle",363%
same,single agent activity (tumor growth),[3]; HCC-70 model,Single agent activity of Compound 2R was demonstrated
same,"tolerability (body weight loss, clinical signs)",[4],well tolerated at the highest dose tested (100 mg/kg) with no signs of body weight loss or other clinical signs
